# Measured values reported in US20210260051A1, “COMBINATION OF EZH2 INHIBITOR AND CHECKPOINT THERAPY FOR THE TREATMENT OF CANCER” (Board of Regents, The University of Texas System, priority 2018, published 2021).
# Experiments:
# [1] = system: murine inducible regulatory T cell (iTreg) differentiation; experiment: in vitro differentiation of murine naïve CD4 T cells into inducible regulatory T cells with EZH2 inhibitors; type: cell-based, mouse; conditions: compared with the other EZH2 inhibitors; FIG. 4A
# Text: FIGS. 4A-B: (FIG. 4A) Percentages of inducible regulatory T cells following in vitro differentiation of murine naïve CD4 T cells into regulatory T cells in the presence and absence of various EZH2 inhibitors. (FIG. 4B) Representative counts of viable cells in culture following treatment with EZH2 inhibitors. Data is representative of three independent experiments. One-way ANOVA was used to determine significance between the groups. **p<0.01.
# To investigate whether the data observed in the FoxP3^creEZH2^fl/fl mouse model could be recapitulated by pharmacological inhibition of EZH2 in T cells, the effect of different EZH2 inhibitors on regulatory T cell differentiation was compared. CPI-1205 was compared with commercially available EZH2 inhibitors.
# (§1) In vitro T cell assays. Human peripheral regulatory T cells were isolated from peripheral blood mononuclear cells by enriching for CD4^+CD127^low CD25^+ cells using the EasySep Human Regulatory T Cell Isolation Kit (STEMCELL Technologies, Cambridge, Mass.). For mouse in vitro regulatory T cell differentiation, CD4^+CD25^low CD44^low CD62L^hinaïve splenic T cells were isolated from C57BL/6 mice using BD FACSAria (BD Biosciences, San Jose, Calif.). The cells were then differentiated in the presence of recombinant murine IL-2 (R&D, 402-ML), tumor growth factor-β (TGF-β, R&D 7666-MB), CPI-1205 or dimethyl sulfoxide (DMSO) and cultured for 6 days.
# [2] = system: GFP+FoxP3+ regulatory T cells (iTregs); experiment: RNA sequencing of GFP+FoxP3+ regulatory T cells differentiated with CPI-1205 or DMSO; type: cell-based, mouse; conditions: CPI-1205 vs DMSO
# Text: (§2) FIGS. 5A-5C: Naïve T cells from FoxP3enhanced green fluorescent protein (eGFP) C57BL/6 mice that were differentiated into iTregs in the presence or absence of CPI-1205. GFP^+FoxP3^+ regulatory T cells were subsequently used for RNA sequencing analysis. (FIG. 5A) Ingenuity Pathway Analysis of RNA sequencing data of regulatory T cells differentiated in the presence of DMSO or CPI-1205. (FIG. 5B) Differentially expressed genes (DEGs) seen following differentiation of inducible regulatory T cells in presence of CPI-1205 or DMSO. (FIG. 5C) Luminex-based cytokine analysis of culture supernatant from inducible regulatory T cells following differentiation with CPI-1205 or DMSO. 2 tailed student t test was used to determine significance; NS, not significant. **p<0.01.
# To understand CPI-1205-mediated molecular changes underlying the loss of suppressive activity of regulatory T cells, naïve murine T cells (CD4^+CD25^low CD44^low CD62^hi) from FoxP3-enhanced green fluorescent protein (eGFP) C57BL/6 mice were differentiated into iTregs in the presence or absence of CPI-1205. Purified GFP^+FoxP3^+ regulatory T cells were subsequently used for RNA sequencing analysis. […] The cytokine levels were subsequently examined in the culture supernatant of the iTregs that were differentiated with and without CPI-1205. […] CPI-1205 can also skew the phenotype of iTregs to pro-inflammatory cytokine producing effector-like T cells. In the study, it was noted that EZH2 inhibition leads to decreased expression of not only FoxP3 but also other critical genes, such as NRP1 and BACH2, which are required for regulatory T cell stability (16-18). CPI-1205 treated regulatory T cells seem to acquire the phenotype of so called “exFoxP3” cells which was previously shown to have an activated memory phenotype (Zhou et al., 2009).
# as §1
# RNA sequencing. RNA was extracted from peripheral CD4 T cells isolated from patients with metastatic melanoma and from in vitro differentiated GFP^+ regulatory T cells. RNA sequencing reactions were performed by Active Motif (Carlsbad, Calif.) and Ocean Ridge Biosciences (Deerfield, Fla.) using an Illumina HiSeq 50-bp platform. For bioinformatics analysis, the raw reads were aligned to the mm10 reference genome using TopHat2. HTSeq count was used to count the raw reads that were uniquely mapped to each gene. DESeq2 was then applied to normalize the raw read counts and identify the differentially expressed genes between the groups. The beta-uniform mixture model was used to fit the p value distribution for multiple testing adjustments. The lists of differentially expressed genes were then used as input into Ingenuity Pathway Analysis for pathway analysis. RNA-sequencing data were deposited in the NCBI's Gene Expression Omnibus database.
# [3] = system: inducible regulatory T cells; experiment: Luminex-based cytokine analysis of iTreg culture supernatant; type: cell-based, mouse; conditions: iTregs differentiated with vs without CPI-1205; FIG. 5C
# Text: as §2
# To understand CPI-1205-mediated molecular changes underlying the loss of suppressive activity of regulatory T cells, naïve murine T cells (CD4^+CD25^low CD44^low CD62^hi) from FoxP3-enhanced green fluorescent protein (eGFP) C57BL/6 mice were differentiated into iTregs in the presence or absence of CPI-1205. Purified GFP^+FoxP3^+ regulatory T cells were subsequently used for RNA sequencing analysis. […] The cytokine levels were subsequently examined in the culture supernatant of the iTregs that were differentiated with and without CPI-1205. […]
# [4] = patients, continuous daily dosing; cited from earlier work
smiles,measurement,setting,value
"COc1cc(C)[nH]c(=O)c1CNC(=O)c1c(C)n([C@H](C)C2CCN(CC(F)(F)F)CC2)c2ccccc12 [CPI-1205, N-[(4-methoxy-6-methyl-2-oxo-1H-pyridin-3-yl)methyl]-2-methyl-1-[(1R)-1-[1-(2,2,2-trifluoroethyl)piperidin-4-yl]ethyl]indole-3-carboxamide]",suppression of murine inducible regulatory T cell (iTreg) differentiation,[1],most striking effect
same,"pro-inflammatory pathways (Th-1/Th-2), Ingenuity Pathway Analysis",[2]; FIG. 5A,upregulation
same,BACH2 expression,[2]; FIG. 5B,decreased
same,FoxP3 expression,[2]; FIG. 5B,decreased
same,effector cytokines and chemokines (differentially expressed genes),[2]; FIG. 5B,increase
same,neuropilin 1 (NRP1) expression,[2]; FIG. 5B,decreased
same,pro-inflammatory cytokines in the culture supernatant,[3],significantly increased
same,dose-limiting toxicities,[4],no dose-limiting toxicities
same,tolerability,[4],well tolerated
